Laboratory results: patent publication US11932845B2, “Microorganisms and methods for production of 4-hydroxybutyrate, 1,4-butanediol and related compounds” (priority 2012, dated 2024)
Read-outs that look alike come from different tables or passages of the source.

Columns and labels:
[1] = test system: aminotransferase; conditions: activity considered 100% on tyrosine; cited from earlier work
[2] = test system: Alcohol dehydrogenase; test: Alcohol dehydrogenase (ADH) assay in the reductive direction, cell extracts; conditions: cell extracts from MG1655 lacI^Q containing pZA33
Protocol: (§1) Alcohol (ADH) and aldehyde (ALD) dehydrogenase was assayed in the reductive direction using a procedure adapted from several literature sources (Durre et al., FEMS Microbiol. Rev. 17:251-262 (1995); Palosaari and Rogers, J. Bacteriol. 170:2971-2976 (1988) and Welch et al., Arch. Biochem. Biophys. 273:309-318 (1989). The oxidation of NADH is followed by reading absorbance at 340 nm every four seconds for a total of 240 seconds at room temperature. The reductive assays were performed in 100 mM MOPS (adjusted to pH 7.5 with KOH), 0.4 mM NADH, and from 1 to 50 μl of cell extract. The reaction is started by adding the following reagents: 100 μl of 100 mM acetaldehyde or butyraldehyde for ADH, or 100 μl of 1 mM acetyl-CoA or butyryl-CoA for ALD. The Spectrophotometer is quickly blanked and then the kinetic read is started. The resulting slope of the reduction in absorbance at 340 nm per minute, along with the molar extinction coefficient of NAD(P)H at 340 nM (6000) and the protein concentration of the extract, can be used to determine the specific activity.
(§2) Gene candidates for the 4-HB to BDO conversion pathway were next tested for activity when expressed in the E. coli host MG1655 lacI^Q. Recombinant strains containing each gene candidate expressed on pZA33 were grown in the presence of 0.25 mM IPTG for four hours at 37° C. to fully induce expression of the enzyme. Four hours after induction, cells were harvested and assayed for ADH and ALD activity as described above.

[3] = test system: Aldehyde dehydrogenase; test: Aldehyde dehydrogenase (ALD) assay in the reductive direction, cell extracts; conditions: cell extracts from MG1655 lacI^Q containing pZA33
Protocol: as §1, §2

[4] = test system: L(+)-lactate dehydrogenase from A. eutrophus; conditions: compared with that on pyruvate; cited from earlier work
[5] = molecular target: T1, L(+)-lactate dehydrogenase from rabbit muscle (Oryctolagus cuniculus, UniProt P13491); conditions: compared with that on pyruvate; cited from earlier work
T1 construct: host or cells: rabbit muscle

[6] = test system: D(−)-lactate dehydrogenase from L. leichmanii; conditions: compared with that on pyruvate; cited from earlier work
[7] = test system: alcohol dehydrogenase from Brevibacterium sp KU; conditions: oxidation of alcohols, cited from earlier work; for Relative Activity: 2-phenylethanol taken as 100%
[8] = molecular target: homoserine kinase (Escherichia coli, UniProt P00547); conditions: cited from earlier work
[9] = test system: cytochrome-bd oxidases; conditions: cited from earlier work; for Km: pH 7
[10] = test system: alcohol dehydrogenase from Brevibacterium sp KU 1309; conditions: reduction of carbonyl compounds; cited from earlier work
[11] = test system: 4-HB to BDO conversion pathway; test: Production of BDO from 10 mM 4-HB in recombinant E. coli strains; conditions: for BDO: 10 mM 4-HB, 24 hours, cat2 (0034) on pZA33
Protocol: For the BDO production experiments, cat2 from Porphyromonas gingivalis W83 (gene 0034) was included on pZA33 for the conversion of 4-HB to 4-HB-CoA, while the candidate dehydrogenase genes were expressed on pZE13. The host strain was MG1655 lacI^Q. Along with the alcohol and aldehyde dehydrogenase candidates, we also tested the ability of CoA-dependent succinic semialdehyde dehydrogenases (sucD) to function in this step, due to the similarity of the substrates. Cells were grown to an OD of about 0.5 in LB medium supplemented with 10 mM 4-HB, induced with 1 mM IPTG, and culture broth samples taken after 24 hours and analyzed for BDO as described below.
Finally, the construct was tested for participation in the conversion of 4-HB to BDO. Host strains were transformed with the pZA33-0020-0021 construct described and pZE13-0002, and compared to use of cat2 in BDO production using the aerobic procedure used above in FIG. 5.

Chain of homoserine kinase (P00547 whole entry): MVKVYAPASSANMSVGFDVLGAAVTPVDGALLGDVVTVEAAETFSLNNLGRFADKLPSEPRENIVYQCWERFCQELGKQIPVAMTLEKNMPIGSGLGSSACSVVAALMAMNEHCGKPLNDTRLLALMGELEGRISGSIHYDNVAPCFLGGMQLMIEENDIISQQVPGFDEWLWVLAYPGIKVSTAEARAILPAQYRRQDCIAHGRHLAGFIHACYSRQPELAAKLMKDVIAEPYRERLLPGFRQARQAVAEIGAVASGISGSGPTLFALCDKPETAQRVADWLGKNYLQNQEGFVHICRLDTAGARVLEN

CSCC[C@H](N)C(=O)O [methionine]
activity [1]: 25%

0011: Gene ID 0011, adhE, E. coli, Aldehyde/alcohol dehydrogenase [Sample 0011]
Alcohol dehydrogenase, Substrate Acetaldehyde [2]: 0.0093 μmol min^−1 mg cell protein^−1
Alcohol dehydrogenase, Substrate Butyraldehyde [2]: 0.0265 μmol min^−1 mg cell protein^−1
Aldehyde dehydrogenase, Substrate Acetyl-CoA [3]: 0.0095 μmol min^−1 mg cell protein^−1
Aldehyde dehydrogenase, Substrate Butyryl-CoA [3]: 0.0069 μmol min^−1 mg cell protein^−1

CCC(C)C(=O)C(=O)O (stereo not drawn) [3-Methyl-2-oxovalerate]
Activity (%) of L(+)-lactate dehydrogenase from A. eutrophus [4]: 5.3%
Activity (%) of L(+)-lactate dehydrogenase from rabbit muscle [5]: 0.0%
Activity (%) of D(−)-lactate dehydrogenase from L. leichmanii [6]: 0.0%

CCCCCCCCCCCCO [Sample 1-Dodecanol, 1-Dodecanol]
Relative Activity [7]: 68 0%

CC(C)OC(=O)[C@@H](N)CCO [L-homoserine isopropyl ester]
% kcat [8]: 74%

CCCCCCCCO [Sample 1-Octanol, 1-Octanol]
Relative Activity [7]: 101 0%

Cytochrome bd-II
In vivo sp act [9]: 70 ± 12 mol O2/mol cytochrome bd/s
Vmax [9]: 818 ± 75 mol O/mol cytochrome bd/s
Km ([9]; read-out: Km (O2) at pH 7): 2 ± 0.3 µM
Km ([9]; read-out: Km (UQ-H2) at pH 7): 250 ± 45 µM

N[C@@H](Cc1c[nH]c2ccccc12)C(=O)O [tryptophan]
activity [1]: 85%

CC(C)O [Sample 2-Propanol, 2-Propanol]
Relative Activity [7]: 54 0%

CC(C)C(=O)C(=O)O [3-Methyl-2-oxobutyrate]
Activity (%) of L(+)-lactate dehydrogenase from A. eutrophus [4]: 28.5%
Activity (%) of L(+)-lactate dehydrogenase from rabbit muscle [5]: 0.0%
Activity (%) of D(−)-lactate dehydrogenase from L. leichmanii [6]: 0.0%

CCCC(=O)C(=O)O [2-Oxovalerate]
Activity (%) of L(+)-lactate dehydrogenase from A. eutrophus [4]: 125.0%
Activity (%) of L(+)-lactate dehydrogenase from rabbit muscle [5]: 0.7%
Activity (%) of D(−)-lactate dehydrogenase from L. leichmanii [6]: 0.0%

N[C@H](CCO)C(=O)O [D-homoserine]
% kcat [8]: 32%

O=CCc1ccccc1 [Phenylacetaldehyde]
Relative Activity [10]: 100%

CC(C)COC(=O)[C@@H](N)CCO [L-homoserine isobutyl ester]
% kcat [8]: 84%

OCCCc1ccccc1 [3-Phenylpropanol]
Relative Activity [7]: 135 0%
Km [7]: 33 µM

N[C@@H](Cc1ccc(O)cc1)C(=O)O [tyrosine]
activity [1]: 100%

COC(=O)[C@@H](N)CCO [L-homoserine methyl ester]
% kcat [8]: 80%

CCC(=O)C(=O)O [2-Oxobutyrate]
Activity (%) of L(+)-lactate dehydrogenase from A. eutrophus [4]: 107.0%
Activity (%) of L(+)-lactate dehydrogenase from rabbit muscle [5]: 18.6%
Activity (%) of D(−)-lactate dehydrogenase from L. leichmanii [6]: 1.1%

CC(C)C[C@H](N)C(=O)O [leucine]
activity [1]: 25%

CC(O)c1ccccc1 (stereo not drawn) [1-Phenylethanol]
Relative Activity [7]: 46 0%

CC(=O)c1ccccc1 [Acetophenone]
Relative Activity [10]: 0%

CCCCO [Sample 1-Butanol, 1-Butanol]
Relative Activity [7]: 111 0%

CCCCCCCC=O [1-Octylaldehyde]
Relative Activity [10]: 87%

CC(C=O)c1ccccc1 (stereo not drawn) [2-Phenylpropionaldehyde]
Relative Activity [10]: 188%

N[C@H](CO)CCO [L-2-amino-1,4-butanediol]
% kcat [8]: 7.9%

CCOC(=O)[C@@H](N)CCO [L-homoserine ethyl ester]
% kcat [8]: 74%

N[C@@H](CC=O)C(=O)O [L-aspartate β-semialdehyde]
% kcat [8]: 8.2%
Km [8]: 0.28 ± 0.02 mM

CCCOC(=O)[C@@H](N)CCO [L-homoserine n-propyl ester]
% kcat [8]: 76%

C[C@H](CO)c1ccccc1 [(S)-2-Phenylpropanol]
Relative Activity [7]: 156 0%
Km [7]: 157 µM

N[C@@H](CCO)C(=O)O [L-homoserine]
% kcat [8]: 100%

CCO [Ethanol]
Relative Activity [7]: 76 0%

CCCCOC(=O)[C@@H](N)CCO [L-homserine n-butyl ester]
% kcat [8]: 160%
Km [8]: 5.8 ± 0.8 mM

N[C@@H](CCCO)C(=O)O [L-2-amino-5-hydroxyvalerate]
% kcat [8]: 9.9%
Km [8]: 1.1 ± 0.5 mM

O=C(O)C(=O)CF [3-Fluoropyruvate]
Activity (%) of L(+)-lactate dehydrogenase from A. eutrophus [4]: 33.6%
Activity (%) of L(+)-lactate dehydrogenase from rabbit muscle [5]: 74.3%
Activity (%) of D(−)-lactate dehydrogenase from L. leichmanii [6]: 40.0%

C[C@@H](CO)c1ccccc1 [(R)-2-Phenylpropanol]
Relative Activity [7]: 63 0%
Km [7]: 20 µM

CC(C)CC(=O)C(=O)O [4-Methyl-2-oxopentanoate]
Activity (%) of L(+)-lactate dehydrogenase from A. eutrophus [4]: 39.0%
Activity (%) of L(+)-lactate dehydrogenase from rabbit muscle [5]: 1.4%
Activity (%) of D(−)-lactate dehydrogenase from L. leichmanii [6]: 1.1%

O=CC(=O)O [Glyoxylate]
Activity (%) of L(+)-lactate dehydrogenase from A. eutrophus [4]: 8.7%
Activity (%) of D(−)-lactate dehydrogenase from L. leichmanii [6]: 5.0%

N[C@@H](Cc1ccccc1)C(=O)O [phenylalanine]
activity [1]: 90%

B1: Cytochrome bo (protein, UniProt P0ABJ1 25-315; P0ABI8 1-663; P0ABJ3 1-204; P0ABJ6 1-109, looked up)
Cytochrome bo(3) ubiquinol … 1: CNSALLDPKGQIGLEQRSLILTAFGLMLIVVIPAILMAVGFAWKYRASNKDAKYSPNWSHSNKVEAVVWTVPILIIIFLAVLTWKTTHALEPSKPLAHDEKPITIEVVSMDWKWFFIYPEQGIATVNEIAFPANTPVYFKVTSNSVMNSFFIPRLGSQIYAMAGMQTRLHLIANEPGTYDGISASYSGPGFSGMKFKAIATPDRAAFDQWVAKAKQSPNTMSDMAAFEKLAAPSEYNQVEYFSNVKPDLFADVINKFMAHGKSMDMTQPEGEHSAHEGMEGMDMSHAESAH
Cytochrome bo(3) ubiquinol … 2: MFGKLSLDAVPFHEPIVMVTIAGIILGGLALVGLITYFGKWTYLWKEWLTSVDHKRLGIMYIIVAIVMLLRGFADAIMMRSQQALASAGEAGFLPPHHYDQIFTAHGVIMIFFVAMPFVIGLMNLVVPLQIGARDVAFPFLNNLSFWFTVVGVILVNVSLGVGEFAQTGWLAYPPLSGIEYSPGVGVDYWIWSLQLSGIGTTLTGINFFVTILKMRAPGMTMFKMPVFTWASLCANVLIIASFPILTVTVALLTLDRYLGTHFFTNDMGGNMMMYINLIWAWGHPEVYILILPVFGVFSEIAATFSRKRLFGYTSLVWATVCITVLSFIVWLHHFFTMGAGANVNAFFGITTMIIAIPTGVKIFNWLFTMYQGRIVFHSAMLWTIGFIVTFSVGGMTGVLLAVPGADFVLHNSLFLIAHFHNVIIGGVVFGCFAGMTYWWPKAFGFKLNETWGKRAFWFWIIGFFVAFMPLYALGFMGMTRRLSQQIDPQFHTMLMIAASGAVLIALGILCLVIQMYVSIRDRDQNRDLTGDPWGGRTLEWATSSPPPFYNFAVVPHVHERDAFWEMKEKGEAYKKPDHYEEIHMPKNSGAGIVIAAFSTIFGFAMIWHIWWLAIVGFAGMIITWIVKSFDEDVDYYVPVAEIEKLENQHFDEITKAGLKNGN
Cytochrome bo(3) ubiquinol … 3: MATDTLTHATAHAHEHGHHDAGGTKIFGFWIYLMSDCILFSILFATYAVLVNGTAGGPTGKDIFELPFVLVETFLLLFSSITYGMAAIAMYKNNKSQVISWLALTWLFGAGFIGMEIYEFHHLIVNGMGPDRSGFLSAFFALVGTHGLHVTSGLIWMAVLMVQIARRGLTSTNRTRIMCLSLFWHFLDVVWICVFTVVYLMGAM
Cytochrome bo(3) ubiquinol … 4: MSHSTDHSGASHGSVKTYMTGFILSIILTVIPFWMVMTGAASPAVILGTILAMAVVQVLVHLVCFLHMNTKSDEGWNMTAFVFTVLIIAILVVGSIWIMWNLNYNMMMH
Vmax [9]: 225 mol O/mol cytochrome bd/s

B2: 0008n: Gene ID 0008 (native), sucD, Clostridium kluyveri DSM 555, Succinic semialdehyde dehydrogenase (CoA-dependent) (protein, UniProt P38947 1-453, looked up)
Succinate-semialdehyde …: MSNEVSIKELIEKAKVAQKKLEAYSQEQVDVLVKALGKVVYDNAEMFAKEAVEETEMGVYEDKVAKCHLKSGAIWNHIKDKKTVGIIKEEPERALVYVAKPKGVVAATTPITNPVVTPMCNAMAAIKGRNTIIVAPHPKAKKVSAHTVELMNAELKKLGAPENIIQIVEAPSREAAKELMESADVVIATGGAGRVKAAYSSGRPAYGVGPGNSQVIVDKGYDYNKAAQDIITGRKYDNGIICSSEQSVIAPAEDYDKVIAAFVENGAFYVEDEETVEKFRSTLFKDGKINSKIIGKSVQIIADLAGVKVPEGTKVIVLKGKGAGEKDVLCKEKMCPVLVALKYDTFEEAVEIAMANYMYEGAGHTAGIHSDNDENIRYAGTVLPISRLVVNQPATTAGGSFNNGFNPTTTLGCGSWGRNSISENLTYEHLINVSRIGYFNKEAKVPSYEEIWG
BDO/OD ([11]; Aerobic): 47.6
BDO ([11]; Aerobic): 255.8 µM
BDO/OD ([11]; Anaerobic): 98.1
BDO ([11]; Anaerobic): 60.8 µM
BDO/OD ([11]; Microaerobic): 41.9
BDO ([11]; Microaerobic): 127.9 µM

B3: 0013: Gene ID 0013, bdhB, Clostridium acetobutylicum ATCC 824, Butanol dehydrogenase II (protein, UniProt Q04945 1-390, looked up)
NADH-dependent butanol …: MVDFEYSIPTRIFFGKDKINVLGRELKKYGSKVLIVYGGGSIKRNGIYDKAVSILEKNSIKFYELAGVEPNPRVTTVEKGVKICRENGVEVVLAIGGGSAIDCAKVIAAACEYDGNPWDIVLDGSKIKRVLPIASILTIAATGSEMDTWAVINNMDTNEKLIAAHPDMAPKFSILDPTYTYTVPTNQTAAGTADIMSHIFEVYFSNTKTAYLQDRMAEALLRTCIKYGGIALEKPDDYEARANLMWASSLAINGLLTYGKDTNWSVHLMEHELSAYYDITHGVGLAILTPNWMEYILNNDTVYKFVEYGVNVWGIDKEKNHYDIAHQAIQKTRDYFVNVLGLPSRLRDVGIEEEKLDIMAKESVKLTGGTIGNLRPVNASEVLQIFKKSV
Alcohol dehydrogenase, Substrate Acetaldehyde [2]: 0.0142 μmol min^−1 mg cell protein^−1
Alcohol dehydrogenase, Substrate Butyraldehyde [2]: 0.0130 μmol min^−1 mg cell protein^−1
